In ChEMBL document CHEMBL3396977, “Design, synthesis and docking study of novel tetracyclic oxindole derivatives as α-glucosidase inhibitors” (Bioorg Med Chem Lett, 2015):
Active and inactive are the calls of the source. The rule behind the calls is not given here.

Assays:
Alpha-glucosidase MAL12 = Alpha-glucosidase MAL12 (Saccharomyces cerevisiae S288c, UniProt P53341); assay: Inhibition of bakers yeast alpha-glucosidase using p-nitrophenyl-alpha-D-glucopyranoside as substrate after 30 mins by spectrophotometry
Sequence of Alpha-glucosidase MAL12 (P53341 whole entry): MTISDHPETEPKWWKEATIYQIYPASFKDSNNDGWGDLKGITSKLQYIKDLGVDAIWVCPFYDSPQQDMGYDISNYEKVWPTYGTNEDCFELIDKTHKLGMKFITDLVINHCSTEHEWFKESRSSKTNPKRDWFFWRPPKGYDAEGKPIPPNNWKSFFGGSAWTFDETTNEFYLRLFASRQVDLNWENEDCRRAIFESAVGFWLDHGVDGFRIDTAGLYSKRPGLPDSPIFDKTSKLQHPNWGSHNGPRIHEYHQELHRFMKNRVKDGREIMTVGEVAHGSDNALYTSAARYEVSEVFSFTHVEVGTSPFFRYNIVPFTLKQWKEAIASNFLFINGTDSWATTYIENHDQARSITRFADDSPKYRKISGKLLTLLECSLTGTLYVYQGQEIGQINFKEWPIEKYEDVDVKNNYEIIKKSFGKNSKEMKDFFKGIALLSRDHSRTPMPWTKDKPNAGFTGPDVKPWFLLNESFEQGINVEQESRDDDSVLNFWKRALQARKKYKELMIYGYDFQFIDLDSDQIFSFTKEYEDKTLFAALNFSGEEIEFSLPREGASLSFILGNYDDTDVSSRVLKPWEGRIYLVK

[1] = biological target: Oligo-1,6-glucosidase IMA1 (Saccharomyces cerevisiae S288c) (UniProt P53051); assay: Competitive inhibition of bakers yeast alpha-glucosidase using p-nitrophenyl-alpha-D-glucopyranoside as substrate at 0.5 to 5 uM after 30 mins by Lineweaver-Burk plot analysis
Sequence of Oligo-1,6-glucosidase IMA1 (Saccharomyces cerevisiae S288c) (P53051 whole entry): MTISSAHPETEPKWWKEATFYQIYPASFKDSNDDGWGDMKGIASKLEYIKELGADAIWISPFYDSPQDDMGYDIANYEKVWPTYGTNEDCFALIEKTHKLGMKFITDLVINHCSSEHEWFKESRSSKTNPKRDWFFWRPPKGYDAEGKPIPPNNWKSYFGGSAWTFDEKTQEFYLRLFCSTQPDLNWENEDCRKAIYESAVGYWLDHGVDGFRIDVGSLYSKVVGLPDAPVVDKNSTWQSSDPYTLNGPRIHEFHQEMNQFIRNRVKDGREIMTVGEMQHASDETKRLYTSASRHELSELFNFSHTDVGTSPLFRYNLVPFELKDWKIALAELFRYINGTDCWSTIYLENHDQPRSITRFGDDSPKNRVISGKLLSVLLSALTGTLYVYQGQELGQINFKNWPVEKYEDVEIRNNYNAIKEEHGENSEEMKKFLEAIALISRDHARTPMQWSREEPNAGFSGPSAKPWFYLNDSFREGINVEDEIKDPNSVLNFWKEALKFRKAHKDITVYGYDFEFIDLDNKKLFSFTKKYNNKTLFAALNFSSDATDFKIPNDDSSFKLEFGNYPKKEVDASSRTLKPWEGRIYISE

[2] = biological target: Oligo-1,6-glucosidase IMA1 (Saccharomyces cerevisiae S288c) (UniProt P53051); assay: Ratio of acarbose IC50 to compound IC50 for bakers yeast alpha-glucosidase using p-nitrophenyl-alpha-D-glucopyranoside as substrate after 30 mins by spectrophotometry

SMILES	IC50 (Alpha-glucosidase MAL12) [µM]	inhibition [1]	Ratio IC50 [2]
COC(=O)CC1c2c(ccc3c2C(=O)C(=O)N3C)-c2ccccc2N1C(=O)c1ccccc1 (configuration not stated)	150		
COC(=O)CC1Oc2ccccc2-c2ccc3c(c21)C(=O)C(=O)N3C (configuration not stated)	105		
COC(=O)CC1Oc2ccccc2-c2ccc3c(c21)C(=O)C(=O)N3Cc1ccccc1 (configuration not stated)	12.1		
COC(=O)CC1c2c(ccc3c2C(=O)C(=O)N3C)-c2ccccc2N1S(=O)(=O)c1ccc(F)cc1 (configuration not stated)	42.9		
COC(=O)CC1c2c(ccc3c2C(=O)C(=O)N3C)-c2ccccc2N1C(=O)c1ccc(OC)cc1 (configuration not stated)	111		
O=C(O)CC1Oc2ccccc2-c2ccc3c(c21)C(=O)C(=O)N3Cc1ccc(C(F)(F)F)cc1 (configuration not stated)	4.8	Active	20
CN1C(=O)C(=O)c2c1ccc1c2C(CC(=O)O)Nc2ccccc2-1 (configuration not stated)	187		
COC(=O)CC1c2c(ccc3c2C(=O)C(=O)N3C)-c2ccccc2N1C(=O)c1ccc(Cl)cc1 (configuration not stated)	75.9		
CN1C(=O)C(=O)c2c1ccc1c2C(CC(=O)O)Oc2ccccc2-1 (configuration not stated)	29		
COC(=O)CC1Nc2ccccc2-c2cc(C)c3c(c21)C(=O)C(=O)N3C (configuration not stated)	117		
COC(=O)CC1Oc2ccccc2-c2ccc3c(c21)C(=O)C(=O)N3Cc1ccc(C(F)(F)F)cc1 (configuration not stated)	15.7		
COC(=O)CC1Oc2ccccc2-c2cc(C)c3c(c21)C(=O)C(=O)N3Cc1ccccc1 (configuration not stated)	39.3		
COC(=O)CC1Nc2ccccc2-c2ccc3c(c21)C(=O)C(=O)N3C (configuration not stated)	287		
O=C(O)CC1Oc2ccccc2-c2ccc3c(c21)C(=O)C(=O)N3Cc1ccccc1 (configuration not stated)	16		
COC(=O)CC1Oc2ccccc2-c2cc(C)c3c(c21)C(=O)C(=O)N3C (configuration not stated)	34.8		
COC(=O)CC1Nc2ccccc2-c2ccc3c(c21)C1(OCC(C)(C)CO1)C(=O)N3C (configuration not stated)	> 300		
COC(=O)CC1c2c(ccc3c2C(=O)C(=O)N3C)-c2ccccc2N1S(=O)(=O)c1ccccc1 (configuration not stated)	77.1		
COC(=O)CC1c2c(ccc3c2C(=O)C(=O)N3C)-c2ccccc2N1C(C)=O (configuration not stated)	> 300		
COC(=O)CC1Nc2ccccc2-c2ccc3c(c21)C(=O)C(=O)N3Cc1ccc(OC)cc1 (configuration not stated)	45.3		
COC(=O)CC1Oc2ccccc2-c2ccc3c(c21)C(=O)C(=O)N3Cc1ccc(OC)cc1 (configuration not stated)	32.3		
